# Data taken from patent US20260193227A1, “THERAPEUTIC COMPOUNDS AND METHODS” (UNIVERSITY OF IOWA RESEARCH FOUNDATION, priority 2022, published 2026).
# Columns and labels:
# EUFA423F HA cells = test: CellTiter-Glo cell viability, BRCA2-complemented cells; format: cell-based, human; settings: yes/no
# Text: Cell lines: EUFA423F cells that are derived from a Fanconi Anemia patient with complementation group D1 and have biallelic mutations (7691 insAT and 9900 insA) in BRCA2 that result in two different truncated forms of BRCA2 (Howlett N G, et al., Science (New York, NY). 2002; 297(5581):606-9) and its counterpart complemented with expression vector for full-length BRCA2 (EUFA HA) were a generous gift from Dr. Simon Powell, Molecular Biology Program, Radiation Oncology, Sloan-Kettering Cancer Center, New York, NY).
# Cell proliferation assay: Selective toxicity of the compounds towards human BRCA2 deficient cells was tested in EUFA423F and its complement EUFA423F HA using CellTiter-Glo® Luminescent Cell Viability Assay (Promega, Madison, WI). The cell lines were maintained in DMEM (Gibco/ThermoFisher Scientific, Waltham, MA) supplemented with 10% FBS and 10 mM HEPES (Gibco/ThermoFisher Scientific, Waltham, MA). EUFA423F HA cells were routinely supplemented with G418 in order to maintain the BRCA2 expression plasmid. Both cell lines were seeded in sterile tissue culture treated, white opaque 384-well plates (Perkin Elmer Inc., Waltham, MA) 3000 cells/well for EUFA423F HA and 2500 cells/well for EUFA423F) and allowed to adhere for 24 hours. Compounds dissolved in DMSO were added in the concentration range of 0-100 μM. Controls were treated with equivalent DMSO volumes. The cells were treated with compounds for 72 hours (to ensure that all cells experienced at least two S-phases). Post treatment, the cells were washed, treated with the CellTiter-Glo® reagent was added and the plate was analyzed as using a Gen5 (ver2.1) luminosity plate reader. The luminescence that reports on ATP generation by the surviving cells was normalized for the DMSO treated control as 100%. The normalized luminescence (average±standard deviation for at least three independent measurements obtained with different cell passages) was plotted in GraphPad Prism as a function of compound concentration. Clonogenic Survival: EUFA423F and EUFA423F HA cells were seeded in a 96 well plate. Compounds dissolved in DMSO were added to final concentrations of 0, 50, and 100 μM for the compound of Example 8 and the compound of Example 1, and 0, 5, and 10 μM for the compounds of Examples 2-7. The cells were treated with compounds for 72 hours. Post treatment, cell cultures were harvested by collecting all non-adherent cells in the well, trypsinization of all adherent cells, combining, pelleting and then resuspending in fresh media. Cultures treated with DMSO only were subsequently counted using a hemocytometer and plated at a density of 2000, 200 and 20 cells per well in 6-well culture plates, equal volumes of cultures were plated each inhibitor concentration. Each treatment and cell density conditions for both cell lines were plated in triplicate. After expanding the colonies for a period of 8 days, cultures were fixed with a solution of 70% ethanol and crystal violet for clonogenic survival analysis. Pictures of individual wells were taken using GelCount (Version 1.3.0.4) by Oxford Optronix (Abingdon UK). A colony had to contain at least 50 cells to be counted. The number of surviving colonies following treatment are presented as a percentage of number of colonies in the experiment where the cells were treated with DMSO only.
# [1] = test system: RAD52 OB mutant (K102A/K103A/K169A/R173A); test: FRET-based inhibition of ssDNA binding, outer binding defective RAD52 mutant; set-up: species or system human; settings: for fold lower IC50 (increased efficiency) against OB mutant compared to IB mutant: Z56: wild type and IB mutant within the fitting error
# Experimental: Proteins: The 6×His-tagged human RAD52 proteins (wild type and mutants) and untagged human RPA were expressed and purified as previously described in (Hengel S R, eLife. 2016; 5; Grimme J M, et al., Nucleic Acids Res. 2010; 38(9):2917-30; and Henricksen L A, et al., The Journal of biological chemistry. 1994; 269(15):11121-32). RPA and RAD52 protein concentrations were determined by measuring absorbance at 280 nm using extinction coefficients of 88,830 M^−1 cm^−1 and 40,470 M^−1 cm^−1, respectively.
# FRET-based DNA binding and inhibition assays: FRET-based that monitor the RAD52-ssDNA, RPA-ssDNA and RAD52-RPA-ssDNA binding were carried out as previously described (Hengel S R, eLife. 2016; 5; Grimme J M, et al., Nucleic Acids Res. 2010; 38(9):2917-30; and Grimme J M, Spies M. FRET-based assays to monitor DNA binding and annealing by Rad52 recombination mediator protein. Methods in molecular biology (Clifton, NJ). 2011; 745:463-83) using Cary Eclipse Spectrofluorimeter (Agilent) at 25° C., in 5 mm quartz cuvettes, and in buffer containing 30 mM Tris-Acetate (pH 7.5) and 1 mM DTT. Cy3 dye was excited at 530 nm and its emission was monitored at 565 nm. Emission of Cy5 acceptor fluorophore excited through the energy transfer from Cy3 donor is monitored at 660 nm simultaneously with emission of Cy3 dye. Both the excitation and the emission slits were set to 10 nm. All experiments were carried out using 1 nM (molecules) Cy3-dT30-Cy5 ssDNA. The optimal concentrations of the RAD52 (6 nM) and RPA (1 nM) proteins were selected by titrating the respective protein into 1 nM Cy3-dT30-Cy5 solution, and chosen based on the largest separation of the FRET values corresponding to the protein bound and free DNA.
# The inhibition of the RAD52-ssDNA, RPA-ssDNA and RAD52-RPA-ssDNA complexes was evaluated by titrating each compound to the respective complex, measuring Cy3 and Cy5 fluorescence, and calculating FRET as previously described (Hengel, S. R., et al., eLife, 5).
# Spectral properties of many compounds overlapped with the Cy3 and Cy5 fluorescence. To correct the calculated FRET values for the compound signal, the fluorogenic compounds were titrated into buffer and into solution of 1 nM Cy3-dT30-Cy5. For all tested compounds, the change in the signal in the Cy3 and Cy5 channels with and without Cy3/Cy5-labeled DNA present was the same. […] To account for the dye fluorescence, for each compound concentration, the apparent change in FRET of the ssDNA in the presence the compound was subtracted from the respective FRET signal of the RAD52-ssDNA, RPA-ssDNA or RAD52-ssDNA-RPA complex at the same inhibitor concentration. The IC50 values were calculated by fitting the corrected FRET data to the four-parameter dose response model using GraphPad Prism. […]
# [2] = Solubility in cell culture medium; format: physicochemical; settings: plasma or biological fluid
SMILES,toxicity towards EUFA423 HA (BRCA2-complemented cells) (EUFA423F HA cells),inhibition of ssDNA binding to OB mutant RAD52 [1],fold lower IC50 (increased efficiency) against OB mutant compared to IB mutant [1] [fold],solubility [2] [µM]
O=C(Cn1cccc([N+](=O)[O-])c1=O)c1c[nH]c2ccccc12 [Example 1],yes,able to inhibit,6,> 100
COc1ccccc1NS(=O)(=O)c1cc(C(=O)O)ccc1C [Example 8],no,able to inhibit,6,–
